Measurements taken from PubChem BioAssay AID1963830 (Molecular Pharmacology Branch, DTP, NCI, 2024).
pIC50: −log10 of the molar value.

Tested on: 922993-354-T-J3-PDC complex spheroid viability
Assay: Anticancer human tumor 922993-354-T-J3-PDC patient-derived endometrial carcinoma cell line growth inhibition [POLQ]
Details: for pIC50: curve of first compound; for viability, T/C: stronger effect = lower value
Experimental: Multicellular complex tumor spheroid response to Polymerase (POL) inhibitors (novobiocin, ART-558, RP6685) in combination with a variety of drugs and investigational agents in selected tumor cell lines
The POL inhibitors (novobiocin, ART-558, and RP6685) were evaluated both individually and in combination with standard of care and investigational anticancer small molecules within a complex spheroid model of solid tumors. . Complex spheroids include a stromal component modeled by human endothelial cells (HUVEC) and fibroblasts modeled by human mesenchymal stem cells (MSCs). The concentration ranges selected for each drug and investigational agent were based upon clinically achievable concentrations if the clinical Cmax of the agent was known.
Compounds. The drugs and investigational agents: novobiocin (NSC847541), ART-558 (NSC835418), RP-6685 (NSC848927), peposertib (NSC802822), ceralasertib (NSC780249), elimusertib (NSC800525), camonsertib (NSC841442), AZD-1390 (NSC803789), olaparib (NSC753686), talazoparib (NSC767125), rucaparib (NSC756644), sotorasib (NSC818433), MRTX-1133 (NSC836407), SN-38 (NSC673596), topotecan (NSC609699), epotoside (NSC141540), doxorubicin (NSC123127), gemcitabine (NSC613327), 5-fluorouracil (NSC19893), paclitaxel (NSC125973), vemurafenib (NSC761431), MSA-2 (NSC828583), SN-011 (NSC837082), adavosertib (NSC754352), prexasertib (NSC758257), carboplatin (NSC241240) and oxaliplatin (NSC266046), were obtained from the National Cancer Institute (NCI) Developmental Therapeutics Program Chemical Repository (21). The FDA-approved anticancer drug set is available from the Developmental Therapeutics Program at https://dtp.cancer.gov/organization/dscb/obtaining/. […] The stock solutions were prepared in dimethyl sulfoxide (DMSO, Sigma-Aldrich, St. Louis, MO, cat. D2650), except for the platinum compounds which were prepared in saline (Quality Biological, Gaithersburg, MD, cat. 114-055-101), at 800-fold the tested concentration and stored at -70 degrees C prior to their use. All drugs and investigational agents were tested over a range starting from a high concentration at or near the clinical Cmax and decreasing in half-log increments. If the clinical Cmax for an agent had not been determined, the highest concentration tested was 10 microM, except for SN-38, which was tested at a high concentration of 1 microM.
Cell Culture. All cells were maintained in an incubator at 37 degrees C and 5% CO2 with 95% humidity. The PDC lines were cultured according to standard operating procedures established by the NCI PDMR (https://pdmr.cancer.gov). Table 3 of the manuscript, lists the cell lines along with the number of the three cell types plated to form the mct-spheroids and media for tumor cell growth. After thawing, all PDC lines, except 997537-175-T-J1-PDC and 415267-285-R-J2-PDC, were cultured in Matrigel-coated flasks prepared with a working solution of 1X Ham's F-12 nutrient mix, without supplementation (Thermo Fisher Scientific, cat. 11765054), 100 U/mL penicillin-streptomycin (Thermo Fisher Scientific, cat. 15140122), and 2.5% Matrigel (Corning Inc., Corning, NY, cat. 354248) for the first three passages. The two PDC lines 997537-175-T-J1-PDC and 415267-285-R-J2-PDC were cultured on uncoated flasks. The 857933-349-R-J2-PDC line was cultured in 6C/Colon 1B media containing advanced DMEM/F-12 (Thermo Fisher Scientific, cat. 12634028), 10 mM HEPES (Thermo Fisher Scientific, cat. 15630080), 1X GlutaMAX supplement (Thermo Fisher Scientific, cat. 35050061), 0.1 mg/mL primocin (InvivoGen, San Diego, CA, cat. ant-pm-2), 10% defined fetal bovine serum, heat inactivated (HyClone Laboratories Inc., Logan, UT, cat. SH30070.03HI), 50% L-WRN conditioned media (ATCC, cat. CRL-3276), 1.25 mM N-Acetyl-L-cysteine (Sigma-Aldrich, cat. A9165), 10 mM nicotinamide (Sigma-Aldrich, cat. N0636), 1X B-27 supplement (Thermo Fisher Scientific, cat. 17504044), 1X N-2 supplement (Thermo Fisher Scientific, cat. […]
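Note: spheroids exposed to the agents for one week.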
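Throughout, for viability, T/C: 100% = DMSO vehicle control wells.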

CCc1cc2c(N3CCc4c(cc(Cn5ccnc5)cc4-c4cn(C)nc4C(F)(F)F)C3=O)cc(C)nc2c(OC)n1 + Nc1ccc(C#CCN(C(=O)Cc2ncc(C(F)(F)F)cc2C(F)(F)F)c2ccc(F)cc2)nn1
pIC50 (second compound 0.0316 µM): < 5.00
pIC50 (second compound 0.1 µM): < 5.00
pIC50 (second compound 0.316 µM): < 5.00
pIC50 (second compound 1 µM): < 5.00
pIC50 (second compound 3.16 µM): < 5.00
pIC50 (second compound 10 µM): < 5.00
viability, T/C (second compound 0.0316 µM, first compound 0.0316 µM): 103%
viability, T/C (second compound 0.0316 µM, first compound 0.1 µM): 106%
viability, T/C (second compound 0.0316 µM, first compound 0.316 µM): 105%
viability, T/C (second compound 0.0316 µM, first compound 1 µM): 110%
viability, T/C (second compound 0.0316 µM, first compound 3.16 µM): 107%
viability, T/C (second compound 0.0316 µM, first compound 10 µM): 101%
viability, T/C (second compound 0.1 µM, first compound 0.0316 µM): 108%
viability, T/C (second compound 0.1 µM, first compound 0.1 µM): 106%
viability, T/C (second compound 0.1 µM, first compound 0.316 µM): 108%
viability, T/C (second compound 0.1 µM, first compound 1 µM): 105%
viability, T/C (second compound 0.1 µM, first compound 3.16 µM): 101%
viability, T/C (second compound 0.1 µM, first compound 10 µM): 102%
viability, T/C (second compound 0.316 µM, first compound 0.0316 µM): 103%
viability, T/C (second compound 0.316 µM, first compound 0.1 µM): 98.1%
viability, T/C (second compound 0.316 µM, first compound 0.316 µM): 105%
viability, T/C (second compound 0.316 µM, first compound 1 µM): 106%
viability, T/C (second compound 0.316 µM, first compound 3.16 µM): 109%
viability, T/C (second compound 0.316 µM, first compound 10 µM): 104%
viability, T/C (second compound 1 µM, first compound 0.0316 µM): 102%
viability, T/C (second compound 1 µM, first compound 0.1 µM): 100%
viability, T/C (second compound 1 µM, first compound 0.316 µM): 107%
viability, T/C (second compound 1 µM, first compound 1 µM): 107%
viability, T/C (second compound 1 µM, first compound 3.16 µM): 106%
viability, T/C (second compound 1 µM, first compound 10 µM): 99.1%
viability, T/C (second compound 3.16 µM, first compound 0.0316 µM): 99.8%
viability, T/C (second compound 3.16 µM, first compound 0.1 µM): 107%
viability, T/C (second compound 3.16 µM, first compound 0.316 µM): 102%
viability, T/C (second compound 3.16 µM, first compound 1 µM): 105%
viability, T/C (second compound 3.16 µM, first compound 3.16 µM): 103%
viability, T/C (second compound 3.16 µM, first compound 10 µM): 99.6%
viability, T/C (second compound 10 µM, first compound 0.0316 µM): 99%
viability, T/C (second compound 10 µM, first compound 0.1 µM): 98.3%
viability, T/C (second compound 10 µM, first compound 0.316 µM): 100%
viability, T/C (second compound 10 µM, first compound 1 µM): 102%
viability, T/C (second compound 10 µM, first compound 3.16 µM): 99.3%
viability, T/C (second compound 10 µM, first compound 10 µM): 92%
